In patent US7563799B2, “Substituted pyrazolo[3,4-D]pyrimidines as p38 map kinase inhibitors” (Roche Palo Alto LLC, priority 2005, dated 2009):

How the values were obtained:
p38 MAP kinase = molecular target: T1, p38 MAP kinase (Homo sapiens, UniProt Q16539); assay: p38 (MAP) kinase in vitro assay (transfer of γ-33P from ATP to Myelin Basic Protein); assay type: biochemical; details: phosphorylated recombinant p38 MAP kinase, MBP substrate, γ-33P-ATP, 30° C.
T1 construct: made in house; host or cells: E. coli (co-expressed with SEK-1 and MEKK)
Experimental: This example illustrates a p38 (MAP) kinase in vitro assay useful for evaluating the compounds of the invention.
The p38 MAP kinase inhibitory activity of compounds of this invention in vitro was determined by measuring the transfer of the γ-phosphate from γ-^33P-ATP by p-38 kinase to Myelin Basic Protein (MBP), using a minor modification of the method described in Ahn, et al., J. Biol. Chem. 266:4220-4227 (1991).
The phosphorylated form of the recombinant p38 MAP kinase was co-expressed with SEK-1 and MEKK in E. Coli (see, Khokhlatchev, et al., J. Biol. Chem. 272:11057-11062 (1997)) and then purified by affinity chromatography using a Nickel column.
The phosphorylated p38 MAP kinase was diluted in kinase buffer (20 mM 3-(N-morpholino)propanesulfonic acid, pH 7.2, 25 mM β-glycerol phosphate, 5 mM ethylene glycol-bis(beta-aminoethyl ether)-N,N,N′,N′-tetraacetic acid, 1 mM sodium ortho-vanadate, 1 mM dithiothreitol, 40 mM magnesium chloride). Test compound dissolved in DMSO or only DMSO (control) was added and the samples were incubated for 10 min at 30° C. The kinase reaction was initiated by the addition of a substrate cocktail containing MBP and γ-^33P-ATP. […] The phosphorylated MBP was then separated from the residual γ-^33P-ATP using a phosphocellulose membrane (Millipore, Bedfrod, Mass.) and quantitated using a scintillation counter (Packard, Meriden, Conn.).

T1 sequence (Q16539 whole entry): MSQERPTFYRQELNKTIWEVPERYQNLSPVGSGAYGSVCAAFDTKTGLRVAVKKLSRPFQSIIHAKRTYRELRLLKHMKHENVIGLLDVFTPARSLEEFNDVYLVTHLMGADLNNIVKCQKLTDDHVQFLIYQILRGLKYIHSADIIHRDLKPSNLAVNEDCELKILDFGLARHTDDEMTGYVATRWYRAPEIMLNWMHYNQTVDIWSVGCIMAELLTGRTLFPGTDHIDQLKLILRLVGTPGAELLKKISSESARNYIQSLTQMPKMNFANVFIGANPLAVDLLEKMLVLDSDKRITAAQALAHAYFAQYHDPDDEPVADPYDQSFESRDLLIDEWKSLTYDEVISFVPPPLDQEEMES

| melting point | IC50 (p38 MAP kinase) | SMILES |
| --- | --- | --- |
| 251.6 to 252.2 °C |  | CS(=O)(=O)c1ccc(Cl)c(-c2n[nH]c3nc(Oc4ccc(F)cc4F)ncc23)c1 [Compound 2, 3-(2-Chloro-5-methanesulfonyl-phenyl)-6-(2,4-difluoro-phenoxy)-1H-pyrazolo[3,4-d]pyrimidine] |
|  | ~2 nM | CS(=O)(=O)c1ccc(Cl)c(-c2n[nH]c3nc(Oc4ccc(F)cc4F)nc(NC(CO)CO)c23)c1 [Compound 4, 2-[3-(2-Chloro-5-methanesulfonyl-phenyl)-6-(2,4-difluoro-phenoxy)-1H-pyrazolo[3,4-d]pyrimidin-4-ylamino]-propane-1,3-diol] |
| 133 to 135 °C |  | Cc1ccc(S(C)(=O)=O)cc1-c1n[nH]c2nc(Oc3ccc(F)cc3F)ncc12 [Compound 5, 6-(2,4-Difluoro-phenoxy)-3-(5-methanesulfonyl-2-methyl-phenyl)-1H-pyrazolo[3,4-d]pyrimidine] |
